Source: ChEMBL document CHEMBL4732235, “Design, synthesis, and evaluation of transition-state analogs as inhibitors of the bacterial quorum sensing autoinducer synthase CepI” (Bioorg Med Chem Lett, 2021)
Calls of active or inactive are those of the source. No cut-off for these calls is given here.

Legend:
Burkholderia cenocepacia [1] = test: Inhibition of Burkholderia cenocepacia synthase CepI assessed as liberation of ACP thiol using SAM as substrate at 100 uM by DCPIP method
[2] = Inhibition of Burkholderia cenocepacia synthase CepI assessed as liberation of ACP thiol using SAM as substrate by DCPIP method
Burkholderia cenocepacia [3] = test: Binding affinity to Burkholderia cenocepacia synthase CepI assessed as stabilization of protein in presence of trypsin at 50 uM by standard colorimetric trypsin assay

Compound: CCCCCCCC(=O)N[C@H]1C[C@@H](CSC[C@H]2O[C@@H](n3cnc4c(N)ncnc43)[C@H](O)[C@@H]2O)OC1=O
- inhibition (Burkholderia cenocepacia [1]): Active
- IC50 [2]: 1 µM
- Activity (Burkholderia cenocepacia [3]): Active

Compound: CCCCCCCC(=O)N[C@@H]1C[C@H](CSC[C@H]2O[C@@H](n3cnc4c(N)ncnc43)[C@H](O)[C@@H]2O)OC1=O
- inhibition (Burkholderia cenocepacia [1]): Active
- IC50 [2]: 100 µM
